Laboratory results: patent US12178790B2, “Antibacterial compound isolated from Psiloxylon mauritianum and its derivatives” (CENTRE NATIONAL DE LA RECHERCHE SCIENTIFIQUE(CNRS), priority 2021, dated 2024)
In brackets after ≈: the same amount, converted by molar mass. Read-outs that look alike come from different tables or passages of the source.

How the values were obtained:
MRSA (ATCC 33591) = assay: MIC determination (microdilution), MRSA; type: cell-based, Staphylococcus aureus; conditions: for MIC: Staphylococcus aureus, read-out: MIC MRSA ATCC 33591
Method: (§1) The crude extract and pure compounds isolated were tested against human pathogenic microorganisms, including the bacterium Staphylococcus aureus (ATCC 29213), MRSA (ATCC 33591), Candida albicans (ATCC 10213), Trichophyton rubrum (SNB-TR1) and P. aeruginosa ATCC 27853 to screen their antibacterial and antifungal activities. All ATCC strains were purchased from the Pasteur Institute. The clinical isolate was provided by Prof. Philippe Loiseau, Université Paris Sud. The ITS sequence was deposited in the NCBI GenBank database under the registry number KC692746 corresponding to SNB-TR1 strain. The tests were conducted in accordance to the reference protocols from the European Committee on Antimicrobial Susceptibility Testing. The standard microdilutions, ranging from 256 to 0.25 μg/mL were made from stock solutions prepared in DMSO (Sigma-Aldrich, France). The microplates were incubated at 35° C., and MIC values were obtained after 48 h for C. albicans, 24 h for S. aureus and 5 days for T. rubrum. The MIC values reported in Table 2 refer to the lowest concentration preventing visible growth in the wells. Vancomycin (Sigma-Aldrich, Saint-Quentin Fallavier, France) and oxacillin (Sigma-Aldrich, Saint-Quentin Fallavier, France) were used as positive controls for bacteria. Fluconazole (Sigma-Aldrich, Saint-Quentin Fallavier, France) and itraconazole (Sigma-Aldrich, Saint-Quentin Fallavier, France) were used as positive controls for fungi. All assays were conducted in duplicate.

[1] = tested on: Candida albicans (ATCC 10213); assay: MIC determination (microdilution), C. albicans; type: cell-based; conditions: for MIC: Candida albicans, ATCC10213
Method: as §1

[2] = tested on: Human lung fibroblast cells (MRC-5); assay: Cytotoxicity evaluation, MTS assay; type: cell-based
Method: (§2) Human lung fibroblast cells (MRC-5) were purchased from ATCC (Rockville, Md., USA) and cultured as recommended. Cell growth inhibition was determined by an MTS assay according to the manufacturer's instructions (Promega, Madison, Wis., USA). The cells were seeded in 96-well plates containing the growth medium. After 24 h of culture, samples were dissolved in DMSO (Sigma-Aldrich, France), and added to the cells (at 1 and 10 μM final concentrations). After 72 h of incubation, the reagent was added, and the absorbance at 490 nm was recorded using a plate reader. Cell viability was evaluated in comparison with untreated control cultures. Docetaxel (Taxotere) was used as positive control (IC50: 0.5 nM). All assays were conducted in triplicate.

[3] = tested on: Trichophyton rubrum (SNB-TR1); assay: MIC determination (microdilution), T. rubrum; type: cell-based; conditions: for MIC: Trichophyton rubrum, 120 h
Method: as §1

[4] = tested on: Staphylococcus aureus (ATCC 29213); assay: MIC determination (microdilution), S. aureus; type: cell-based; conditions: for MIC: Staphylococcus aureus, ATCC29213
Method: as §1

[5] = tested on: Escherichia coli WT 25922; assay: MIC against Gram-negative bacteria, alone or in combination with colistin; type: cell-based
Method: as §1
(§3) Permeabilizers are compounds that weaken the outer membrane by enhance the permeability of bacterial cells to antimicrobial agents. [Farrag, H. A.; Abdallah, N.; Shehata, M. M. K.; Awad, E. M. J Biomed Sci, 2019, 26:69] Colistin a.k.a. polymyxin E were extensively used in clinical practice for Gram-negative organisms, but gradually withdrawn from the market due to reports of significant nephrotoxicity and neurotoxicity. [Mohamed, Y. F., Abou-Shleib, H. M., Khalil, A. M., El-Guink, N. M., & El-Nakeeb, M. A. Braz J Microbiol., 2016, 47, 381-388] In combinaison with various antibiotics, colistin is known to destabilize the outer membrane enhancing the antibacterial activity. In our study, we evaluated a combinaison of colistin at a sub-inhibitory concentration and Aspidin CB. […] (Table 5)

[6] = tested on: Acinetobacter baummanii 19606; assay: as above; type: cell-based
Method: as §1, §3

S. aureus ATCC25923 = assay: MIC against Gram-positive bacteria; type: cell-based; conditions: Staphylococcus aureus
[7] = tested on: SARM G + 79 (clinical strain); assay: MIC against Gram-positive bacteria; type: cell-based; conditions: Staphylococcus aureus
Method: as §1

[8] = tested on: SARM G + 82 (clinical strain); assay: MIC against Gram-positive bacteria; type: cell-based; conditions: Staphylococcus aureus
Method: as §1

[9] = tested on: SARM G + 86 (clinical strain); assay: MIC against Gram-positive bacteria; type: cell-based; conditions: Staphylococcus aureus
Method: as §1

[10] = tested on: SARM G + 78 (clinical strain); assay: MIC against Gram-positive bacteria; type: cell-based; conditions: Staphylococcus aureus
Method: as §1

[11] = tested on: Enterococcus faecium van B (clinical strain); assay: MIC against Gram-positive bacteria; type: cell-based
[12] = tested on: Enterococcus faecium SI299 (clinical strain); assay: MIC against Gram-positive bacteria; type: cell-based
[13] = Cytotoxicity evaluation, MTS assay; type: cell-based; conditions: human, MRC-5 human lung fibroblast cells, 72 h, read-out: MRC5 Cell Viability
Method: as §2

[14] = tested on: Bacillus sp. L4 210321 (clinical strain); assay: MIC against Gram-positive bacteria; type: cell-based
[15] = tested on: Corynebacterium sp. L2 220321 (clinical strain); assay: MIC against Gram-positive bacteria; type: cell-based
[16] = tested on: Enterococcus faecalis 29212; assay: MIC against Gram-positive bacteria; type: cell-based
[17] = tested on: S. epidermis MSF G + 15 (clinical strain); assay: MIC against Gram-positive bacteria; type: cell-based
[18] = tested on: S. epidermis MSF G + 16 (clinical strain); assay: MIC against Gram-positive bacteria; type: cell-based
SARM NCTC 12493 = assay: MIC against Gram-positive bacteria; type: cell-based; conditions: Staphylococcus aureus, NCTC12493
[19] = ABTS radical scavenging (antioxidant) assay; type: biochemical; conditions: at 50 μg/ml
From the text: P. mauritianum extracts were investigated for their antioxidant activities with using an ABTS [2,2′-azinobis-(3-ethylbenzothiazoline-6-sulfonate)] assay.

[20] = human pathogenic fungi, in words
[21] = colistin at sub-inhibitory concentration, in words

CCCC(=O)C1=C(O)C(Cc2c(O)c(C)c(OC)c(C(=O)CCC)c2O)=C(O)C(C)(C)C1=O [Compound 1, Aspidin BB]
MIC MRSA ATCC 33591 (MRSA (ATCC 33591); Table 6 and text): 1 mg/L (≈ 2.17 µM) | Antibacterial activity against MRSA (MRSA (ATCC 33591); in words): strongly active | MIC C. albicans ATCC 10213 ([1]; Table 6, 48 h): >256 mg/L | Antifungal activity against C. albicans [1, 20]: inactive | MRC5 Cell Viability ([2]; 10^−5 M, 72 h): 86 ± 3% | MRC5 Cell Viability ([2]; 10^−6 M, 72 h): 104 ± 1% | MIC T. rubrum SNB-TR1 ([3]; Table 6, 5 days): >256 mg/L | Antifungal activity against T. rubrum [3, 20]: inactive | MIC S. aureus ATCC 29213 ([4]; Table 6 and text, 24 h): 2 mg/L (≈ 4.34 µM) | Antibacterial activity against S. aureus ([4]; in words): strongly active

CCCCCC(=O)C1=C(O)C(C)(C)C(O)=C(Cc2c(O)c(C)c(OC)c(C(=O)CCC)c2O)C1=O [Compound 2, Aspidin CB]
MIC (MRSA (ATCC 33591); Table 6 and text): 0.25 mg/L (≈ 0.512 µM) | Fold more potent than vancomycin against MRSA (MRSA (ATCC 33591); ratio of MICs): 16 fold | MIC ([5]; Escherichia coli, WT25922, single agent): > 64 mg/L | Activity against E. coli in combination with colistin vs alone [5, 21]: unambiguously more active | MIC ([6]; Acinetobacter, 19606, single agent): > 64 mg/L | Activity against A. baumanii in combination with colistin vs alone [6, 21]: unambiguously more active | MIC ([1]; Table 6, 48 h): > 256 mg/L | MIC (S. aureus ATCC25923): 0.5 mg/L (≈ 1.02 µM) | MIC [7]: 1 mg/L (≈ 2.05 µM) | MIC [8]: 0.5 mg/L (≈ 1.02 µM) | MIC [9]: 0.5 mg/L (≈ 1.02 µM) | MIC [10]: 0.5 mg/L (≈ 1.02 µM) | MIC [11]: 0.5 mg/L (≈ 1.02 µM) | MIC [12]: 8 mg/L (≈ 16.4 µM) | viability at 72 h ([13]; 10^−5 M): 99 ± 2% | viability at 72 h ([13]; 10^−6 M): 105 ± 2% | Cytotoxicity in MRC5 cells ([2]; at 10^−5 M, in words): no cytotoxicity was observed | MIC ([3]; Table 6, 5 days): 256 mg/L (≈ 524 µM) | MIC [14]: 1 mg/L (≈ 2.05 µM) | Fold stronger activity of compound 2 vs compound 1 on S. aureus strains ([4]; S. aureus and MRSA, ratio of MICs): 4-to 8 fold | MIC ([4]; Table 6 and text, 24 h): 0.25 mg/L (≈ 0.512 µM) | MIC [15]: 1 mg/L (≈ 2.05 µM) | MIC [16]: 8 mg/L (≈ 16.4 µM) | MIC [17]: 0.5 mg/L (≈ 1.02 µM) | MIC [18]: 2 mg/L (≈ 4.09 µM) | MIC (SARM NCTC 12493): 0.5 mg/L (≈ 1.02 µM)

CC(=O)O[C@@]12CO[C@@H]1C[C@H](O)[C@@]1(C)C(=O)[C@H](O)C3=C(C)[C@@H](OC(=O)[C@H](O)[C@@H](NC(=O)OC(C)(C)C)c4ccccc4)C[C@@](O)([C@@H](OC(=O)c4ccccc4)[C@H]21)C3(C)C [Docetaxel, reference compound]
IC50 ([2]; Homo sapiens, MRC5, positive control, 72 h, read-out: IC50 cell growth inhibition MRC-5): 0.5 nM

OC(Cn1cncn1)(Cn1cncn1)c1ccc(F)cc1F [Fluconazole, reference compound]
MIC ([1]; Table 6, 48 h): 1 mg/L (≈ 3.27 µM) | MIC ([3]; Table 6, 5 days): 4 mg/L (≈ 13.1 µM)

CCC(C)n1ncn(-c2ccc(N3CCN(c4ccc(OCC5COC(Cn6cncn6)(c6ccc(Cl)cc6Cl)O5)cc4)CC3)cc2)c1=O (centres unmarked) [Itraconazole, reference compound]
MIC ([1]; Table 6, 48 h): < 0.5 mg/L | MIC ([3]; Table 6, 5 days): < 0.5 mg/L

Cc1onc(-c2ccccc2)c1C(=O)N[C@@H]1C(=O)N2[C@@H]1SC(C)(C)[C@@H]2C(=O)O [Oxacillin, reference compound]
MIC ([4]; Table 6 and text, 24 h): 0.25 mg/L (≈ 0.623 µM)

Cc1c(C)c2c(c(C)c1O)CCC(C)(C(=O)O)O2 (centres unmarked) [Trolox]
% ABTS inhibition [19]: 98.0%

CN[C@H](CC(C)C)C(=O)N[C@H]1C(=O)N[C@@H](CC(N)=O)C(=O)N[C@H]2C(=O)N[C@H]3C(=O)N[C@H](C(=O)N[C@H](C(=O)O)c4cc(O)cc(O)c4-c4cc3ccc4O)[C@H](O)c3ccc(c(Cl)c3)Oc3cc2cc(c3O[C@@H]2O[C@H](CO)[C@@H](O)[C@H](O)[C@H]2O[C@H]2C[C@](C)(N)[C@H](O)[C@H](C)O2)Oc2ccc(cc2Cl)[C@H]1O [Vancomycin, reference compound]
MIC (MRSA (ATCC 33591)): 4 mg/L (≈ 2.76 µM)

Colistin [reference compound]
MIC Escherichia coli WT 25922 ([5]; single agent): 1 mg/L | MIC Acinetobacter baummanii 19606 ([6]; single agent): 4 mg/L

Tocopherol
% ABTS inhibition [19]: 97.6%
